Laboratory results reported in the Kinase Knowledgebase extract (Sharma et al. 2016).
pIC50: −log10 of the molar value.

target: MAPK14 (human) (UniProt Q16539); experiment: Inhibition of MAPK14 Kinase Activity
Sequence (Q16539 whole entry, looked up): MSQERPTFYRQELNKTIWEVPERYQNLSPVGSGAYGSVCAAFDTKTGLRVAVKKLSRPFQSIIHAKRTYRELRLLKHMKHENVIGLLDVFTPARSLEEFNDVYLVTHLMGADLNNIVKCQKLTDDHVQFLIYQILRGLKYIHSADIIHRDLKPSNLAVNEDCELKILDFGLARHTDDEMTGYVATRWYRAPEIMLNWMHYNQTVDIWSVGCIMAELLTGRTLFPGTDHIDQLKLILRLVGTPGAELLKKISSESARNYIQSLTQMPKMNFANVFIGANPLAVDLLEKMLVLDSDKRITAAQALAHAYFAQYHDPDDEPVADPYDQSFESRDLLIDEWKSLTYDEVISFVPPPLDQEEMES

pIC50, ≥ 5.00:
O=C(Cc1ccccc1)Nc1ccc(Cl)c(N2CC(Sc3ccc(F)cc3F)CCC2=O)c1Cl (stereo unspecified)
Cc1ccccc1CC1CN(c2c(Cl)cccc2Cl)C(=O)CS1 (stereo unspecified)
NC1CC(Cl)C(N2CC(Oc3ccc(F)cc3F)CCC2=O)C(Cl)C1 (stereo unspecified)
O=C(Cc1ccccc1)NC1CCC(Cl)C(N2CC(Sc3ccc(F)cc3F)CCC2=O)C1Cl (stereo unspecified)
Cc1ccc(CC2CSC(=O)N(c3c(Cl)cccc3Cl)C2)cc1 (stereo unspecified)
O=C1CCC(Sc2cccc3ccccc23)CN1c1c(Cl)cccc1Cl (stereo unspecified)
O=C(Cc1ccccc1)Nc1cc(Cl)c(N2CC(Cc3ccc(F)cc3F)COC2=O)c(Cl)c1 (stereo unspecified)
O=C1CCC(Sc2ccc(F)cc2F)CN1c1c(Cl)ccc(CO)c1Cl (stereo unspecified)
O=C(NCc1ccccc1CC1CCC(=O)N(c2c(Cl)cccc2Cl)C1)Nc1ccccc1C(F)(F)F (stereo unspecified)
O=C1CCC(Sc2ccc(F)cc2F)CN1c1c(Cl)sc(O)c1Cl (stereo unspecified)
O=C1NCC(Cc2ccc(F)cc2F)CN1c1c(Cl)cc(CO)cc1Cl (stereo unspecified)
OCc1ccccc1CC1CCCN(c2c(Cl)cccc2Cl)C1 (stereo unspecified)
O=C1CCC(Cc2ccc(F)cc2F)CN1c1c(Cl)cc(NCCO)cc1Cl (stereo unspecified)
O=C1CCC(Sc2cc(F)cc(F)c2)CN1c1c(Cl)csc1Cl (stereo unspecified)
Cc1cc(CN)cc(C)c1N1CC(Cc2ccc(F)cc2F)CCC1=O (stereo unspecified)
CNc1cc(Cl)c(N2CC(Cc3ccc(F)cc3F)CN(C)C2=O)c(Cl)c1 (stereo unspecified)
O=C1CCC(Sc2ccc(F)cc2)CN1c1c(Cl)cncc1Cl (stereo unspecified)
O=C1COC(Cc2ccccc2Cl)CN1c1c(Cl)cccc1Cl (stereo unspecified)
Cc1cc(C)cc(OC2CCC(=O)N(c3c(Cl)ccnc3Cl)C2)c1 (stereo unspecified)
O=C1CCC(Oc2ccc(F)cc2)CN1c1c(Cl)cncc1Cl (stereo unspecified)
CNc1ccc(Cl)c(N2CC(Cc3ccc(F)cc3F)CSC2=O)c1Cl (stereo unspecified)
COc1ccc(CC2CN(c3c(Cl)cccc3Cl)C(=O)CO2)cc1 (stereo unspecified)
O=C1CCC(Cc2ccc(F)cc2F)CN1c1c(Cl)cncc1Cl (stereo unspecified)
Cc1ccc(OC2CCC(=O)N(C3C(Cl)CCCC3Cl)C2)cc1 (stereo unspecified)
CCc1ccc(CC2CCC(=O)N(c3c(Cl)cccc3Cl)C2)cc1 (stereo unspecified)
NC(=O)CNc1cc(Cl)c(N2CC(Cc3ccc(F)cc3F)CCC2=O)c(Cl)c1 (stereo unspecified)
O=C1NCC(Cc2ccc(F)cc2F)CN1c1c(Cl)ccc(O)c1Cl (stereo unspecified)
CC[C@@H]1C[C@@H](Cc2ccc(F)cc2F)CN(c2c(Cl)cccc2Cl)C1=O
O=C1CCC(Oc2cccc3ccccc23)CN1C1C(Cl)CCCC1Cl (stereo unspecified)
O=C1CCC(Cc2ccc(Cl)cc2Cl)CN1C1C(Cl)CCCC1Cl (stereo unspecified)
O=C1CCC(Oc2ccc(F)cc2F)CN1c1c(Cl)ncc(O)c1Cl (stereo unspecified)
O=C1CCC(Sc2ccccc2)CN1C1C(Cl)CCCC1Cl (stereo unspecified)
O=C1CCC(Oc2ccc(F)cc2F)CN1c1c(Cl)sc(O)c1Cl (stereo unspecified)
O=C1CCC(Oc2ccc3ccccc3c2)CN1c1c(Cl)ccnc1Cl (stereo unspecified)
O=C1COC(Cc2cccc3ccccc23)CN1c1c(Cl)cccc1Cl (stereo unspecified)
O=C1CCC(Oc2ccc(Cl)cc2)CN1c1c(Cl)cccc1Cl (stereo unspecified)
O=C1CCC(Cc2ccc(Cl)cc2Cl)CN1c1c(Cl)cccc1Cl (stereo unspecified)
Cc1ccc(CC2CN(c3c(Cl)cccc3Cl)C(=O)CS2)c(C)c1 (stereo unspecified)
Cc1ccc(CC2CN(c3c(Cl)cccc3Cl)C(=O)CO2)cc1 (stereo unspecified)
O=C1CCC(Oc2ccc(F)cc2F)CN1c1c(Cl)cc(O)cc1Cl (stereo unspecified)
CC(C)(C)OC(=O)Nc1cc(Cl)c(N2CC(Cc3ccccc3F)CCC2=O)c(Cl)c1 (stereo unspecified)
Cc1cc(C(=O)NCCN(C)C)cc(C)c1N1CC(Cc2ccc(F)cc2F)CCC1=O (stereo unspecified)
O=C(Cc1ccccc1)Nc1cc(Cl)c(N2CC(Cc3ccc(F)cc3F)CCC2=O)c(Cl)n1 (stereo unspecified)
O=C1CCC(Oc2ccc(Cl)cc2)CN1c1c(Cl)ccnc1Cl (stereo unspecified)
CN1CC(Cc2ccccc2Cl)CN(c2c(Cl)cccc2Cl)C1=O (stereo unspecified)
CS(=O)(=O)Nc1ccc(Cl)c(N2CC(Cc3ccc(F)cc3F)CCC2=O)c1 (stereo unspecified)
CC(=O)Nc1sc(Cl)c(N2CC(Cc3ccc(F)cc3F)CCC2=O)c1Cl (stereo unspecified)
Cn1nc(C(C)(C)C)cc1NC(=O)OCc1ccccc1CC1CCC(=O)N(c2c(Cl)cccc2Cl)C1 (stereo unspecified)
Cc1ccc(CC2COC(=O)N(c3c(Cl)cccc3Cl)C2)c(C)c1 (stereo unspecified)
Cc1ccccc1CC1CN(C)C(=O)N(c2c(Cl)cccc2Cl)C1 (stereo unspecified)
O=C1CCC(Sc2ccc(F)cc2)CN1C1C(Cl)CCCC1Cl (stereo unspecified)
O=C(NCc1ccccc1CC1CCC(=O)N(c2c(Cl)cccc2Cl)C1)Nc1ccccc1 (stereo unspecified)
CCOC(=O)CNc1cc(Cl)c(N2CC(Cc3ccc(F)cc3F)CCC2=O)c(Cl)c1 (stereo unspecified)
O=C1SCC(Cc2cc(Cl)cc(Cl)c2)CN1c1c(Cl)cccc1Cl (stereo unspecified)
CC(=O)NC1CC(Cl)C(N2CC(Sc3ccc(F)cc3F)CCC2=O)C(Cl)C1 (stereo unspecified)
CC(O)(c1ccc(F)cc1F)C1CCC(=O)N(c2c(Cl)cccc2Cl)C1 (stereo unspecified)
Nc1cc(Cl)c(N2CC(Cc3ccc(F)cc3F)SCC2=O)c(Cl)c1 (stereo unspecified)
CNC(=O)CNc1cc(Cl)c(N2CC(Cc3ccc(F)cc3F)CCC2=O)c(Cl)c1 (stereo unspecified)
O=C1CCC(Cc2ccccc2)CN1c1c(Cl)cc([N+](=O)[O-])cc1Cl (stereo unspecified)
O=C1OCC(Cc2ccc(F)cc2)CN1c1c(Cl)cccc1Cl (stereo unspecified)
NC(=O)NCCNc1cc(Cl)c(N2CC(Cc3ccc(F)cc3F)CCC2=O)c(Cl)c1 (stereo unspecified)
Cc1ccccc1OC1CCC(=O)N(c2c(Cl)cccc2Cl)C1 (stereo unspecified)
O=C1CCC(Cc2ccc(F)cc2F)CN1c1c(Cl)cc(NCCN2CCOCC2)cc1Cl (stereo unspecified)
O=C1OCC(Cc2ccc(F)cc2F)CN1c1c(Cl)ccc(CO)c1Cl (stereo unspecified)
C[C@@H]1C[C@H](Cc2ccc(F)cc2F)CN(c2c(Cl)cc(NCCN(C)C)cc2Cl)C1=O
O=C1CCC(Cc2cccc3ccccc23)CN1c1c(Cl)ccnc1Cl (stereo unspecified)
O=C1CCC(Cc2ccccc2F)CN1c1c(Cl)cccc1Cl (stereo unspecified)
CNc1ncc(Cl)c(N2CC(Oc3ccc(F)cc3F)CCC2=O)c1Cl (stereo unspecified)
O=C(O)CCCC(=O)Nc1cc(Cl)c(N2CC(Cc3ccc(F)cc3F)CCC2=O)c(Cl)c1 (stereo unspecified)
O=C1COC(Cc2ccc(F)cc2F)CN1c1c(Cl)ccc(O)c1Cl (stereo unspecified)
Cc1ccc(OC2CCC(=O)N(c3c(Cl)cccc3Cl)C2)c(C)c1 (stereo unspecified)
CC(=O)Nc1ccc(Cl)c(N2CC(Cc3ccc(F)cc3F)COC2=O)c1Cl (stereo unspecified)
O=C1CCC(Oc2ccc(Cl)cc2Cl)CN1c1c(Cl)cccc1Cl (stereo unspecified)
Cc1cc(C)cc(CC2CSC(=O)N(c3c(Cl)cccc3Cl)C2)c1 (stereo unspecified)
COC(=O)/C=C/c1cc(Cl)c(N2CC(Cc3ccc(F)cc3F)CCC2=O)c(Cl)c1 (stereo unspecified)
O=C(Cc1ccccc1)NC1CC(Cl)C(N2CC(Sc3ccc(F)cc3F)CCC2=O)C(Cl)C1 (stereo unspecified)
CC[C@H]1C[C@@H](Cc2ccc(F)cc2F)CN(c2c(Cl)cccc2Cl)C1=O
O=C1CCC(Oc2ccccc2)CN1c1c(Cl)cncc1Cl (stereo unspecified)
CNc1sc(Cl)c(N2CC(Oc3ccc(F)cc3F)CCC2=O)c1Cl (stereo unspecified)
O=C1CCC(Oc2ccc(Cl)cc2Cl)CN1c1c(Cl)csc1Cl (stereo unspecified)
CC(=O)Nc1ccc(CC2CCC(=O)N(c3c(Cl)cccc3Cl)C2)cc1 (stereo unspecified)
Cc1cc(C#CCCN(C)C)cc(C)c1N1CC(Cc2ccc(F)cc2F)CCC1=O (stereo unspecified)
O=C1CCC(Cc2ccc(F)cc2F)CN1C1C(Cl)CC(O)CC1Cl (stereo unspecified)
Nc1ncc(Cl)c(N2CC(Cc3ccc(F)cc3F)CCC2=O)c1Cl (stereo unspecified)
COC(=O)c1cc(C)c(N2C[C@@H](Cc3ccc(F)cc3F)C[C@@H](C)C2=O)c(C)c1
NCc1ccccc1CC1CCC(=O)N(c2c(Cl)cccc2Cl)C1 (stereo unspecified)
Nc1cc(Cl)c(N2CC(Cc3ccc(F)cc3F)OCC2=O)c(Cl)c1 (stereo unspecified)
COCCOCOc1ccccc1CC1CCC(=O)N(c2c(C)cccc2C)C1 (stereo unspecified)
CN1CC(Cc2ccc(F)cc2F)CN(c2c(Cl)ccc(O)c2Cl)C1=O (stereo unspecified)
CS(=O)(=O)N1CCC(Nc2cc(Cl)c(N3CC(Cc4ccc(F)cc4F)CCC3=O)c(Cl)c2)CC1 (stereo unspecified)
Cc1ccccc1SC1CCC(=O)N(c2c(Cl)ccnc2Cl)C1 (stereo unspecified)
Cc1ccc(CC2CCC(=O)N(c3c(Cl)cccc3Cl)C2)c(C)c1 (stereo unspecified)
O=C(CCCCO)Nc1cc(Cl)c(N2CC(Cc3ccc(F)cc3F)CCC2=O)c(Cl)c1 (stereo unspecified)
O=C1CCC(Cc2cc(F)cc(F)c2)CN1c1c(Cl)cncc1Cl (stereo unspecified)
O=C1CCC(Cc2ccc(F)cc2F)CN1c1c(Cl)cc(N2CCNCC2)cc1Cl (stereo unspecified)
CNc1cc(Cl)c(N2CC(Sc3ccc(F)cc3F)CCC2=O)c(Cl)n1 (stereo unspecified)
O=C1OCC(Cc2cccc3ccccc23)CN1c1c(Cl)cccc1Cl (stereo unspecified)
O=C1CCC(Sc2ccccc2)CN1c1c(Cl)ccnc1Cl (stereo unspecified)
CC(=O)NCc1ccccc1CC1CCC(=O)N(c2c(Cl)cccc2Cl)C1 (stereo unspecified)
N#C/C=C/c1cc(Cl)c(N2CC(Cc3ccc(F)cc3F)CCC2=O)c(Cl)c1 (stereo unspecified)
Cc1cccc(C)c1N1C[C@@H](NS(=O)(=O)c2ccc(F)cc2F)CCC1=O
COc1ccc(CC2CSC(=O)N(c3c(Cl)cccc3Cl)C2)cc1 (stereo unspecified)
O=C1CCC(C(=NO)c2ccc(F)cc2F)CN1c1c(Cl)cccc1Cl (stereo unspecified)
O=C1CCC(Oc2ccc(Cl)cc2)CN1C1C(Cl)CCCC1Cl (stereo unspecified)
O=C1COC(Cc2cc(Cl)cc(Cl)c2)CN1c1c(Cl)cccc1Cl (stereo unspecified)
C=C(c1ccc(F)cc1F)C1CCC(=O)N(c2c(Cl)cccc2Cl)C1 (stereo unspecified)
Cc1cc(C)cc(CC2CCC(=O)N(c3c(Cl)cccc3Cl)C2)c1 (stereo unspecified)
O=C1CCC(C(O)c2ccc(F)cc2F)CN1c1c(Cl)cccc1Cl (stereo unspecified)
CC(=O)NC1CC(Cl)C(N2CC(Oc3ccc(F)cc3F)CCC2=O)C(Cl)C1 (stereo unspecified)
O=C1CCC(Oc2ccc(F)cc2F)CN1C1C(Cl)CC(CO)CC1Cl (stereo unspecified)
O=C1CCC(Oc2cc(Cl)cc(Cl)c2)CN1c1c(Cl)ccnc1Cl (stereo unspecified)
